In patent publication US20240270762A1, “PENICILLIN-BINDING PROTEIN INHIBITORS” (priority 2021, published 2024):
pEC50: −log10 of the molar value. Values after ≈ are worked out from the molar mass of the structure shown.

Assays:
[1] = molecular target: T1, PBP3 from Escherichia coli (K-12) (Escherichia coli, UniProt P0AD68); assay: Bocillin-FL fluorescence polarization competition binding, E. coli PBP3
T1 construct: made in house
Outline: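 Purified PBPs pre-incubated with inhibitor (E. coli PBP3 1.5 μM, 30 min; P. aeruginosa PBP3 0.75 μM, A. baumannii PBP1a 1 μM and PBP3 0.2 μM, 15 min), then Bocillin-FL 0.1 μM (0.05 μM for PBP1a) added; FP read up to 60 min. EC50 = concentration halving bound Bocillin-FL.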

P. aeruginosa CDC-0110 = assay: microbe, parasite or virus in culture; assay type: cell-based; settings: Pseudomonas aeruginosa, CDC0110, read-out: Minimum inhibitory concentration, P. aeruginosa CDC-0110
[2] = tested on: P. aeruginosa (ΔmexAB-oprM); assay: Broth microdilution MIC in iron-depleted CAMHB (IDM); assay type: cell-based; settings: Pseudomonas aeruginosa; iron-depleted CAMHB (IDM); […]; read-out: Minimum inhibitory concentration, P. aeruginosa ΔmexAB-oprM
A. baumannii 1258916 = assay: microbe, parasite or virus in culture; assay type: cell-based, Acinetobacter baumannii; settings: Acinetobacter baumannii, 1258916, read-out: MIC, A. baumannii 1258916
A. baumannii CDC-0036 = assay: microbe, parasite or virus in culture; assay type: cell-based; settings: Acinetobacter baumannii, CDC0036, read-out: MIC, A. baumannii CDC-0036
[3] = tested on: B. thailandensis ATCC 700388; assay: microbe, parasite or virus in culture; assay type: cell-based; settings: Burkholderia thailandensis, ATCC700388, read-out: Minimum inhibitory concentration (MIC), B. thailandensis ATCC 700388
P. aeruginosa CDC-0090 = assay: microbe, parasite or virus in culture; assay type: cell-based; settings: Pseudomonas aeruginosa, CDC0090, read-out: Minimum inhibitory concentration, P. aeruginosa CDC-0090
P. aeruginosa CDC-0054 = assay: microbe, parasite or virus in culture; assay type: cell-based; settings: Pseudomonas aeruginosa, CDC0054, read-out: Minimum inhibitory concentration, P. aeruginosa CDC-0054
P. aeruginosa ATCC 27853 = assay: microbe, parasite or virus in culture; assay type: cell-based; settings: Pseudomonas aeruginosa, ATCC27853, read-out: Minimum inhibitory concentration, P. aeruginosa ATCC 27853

T1 sequence (P0AD68 1-577): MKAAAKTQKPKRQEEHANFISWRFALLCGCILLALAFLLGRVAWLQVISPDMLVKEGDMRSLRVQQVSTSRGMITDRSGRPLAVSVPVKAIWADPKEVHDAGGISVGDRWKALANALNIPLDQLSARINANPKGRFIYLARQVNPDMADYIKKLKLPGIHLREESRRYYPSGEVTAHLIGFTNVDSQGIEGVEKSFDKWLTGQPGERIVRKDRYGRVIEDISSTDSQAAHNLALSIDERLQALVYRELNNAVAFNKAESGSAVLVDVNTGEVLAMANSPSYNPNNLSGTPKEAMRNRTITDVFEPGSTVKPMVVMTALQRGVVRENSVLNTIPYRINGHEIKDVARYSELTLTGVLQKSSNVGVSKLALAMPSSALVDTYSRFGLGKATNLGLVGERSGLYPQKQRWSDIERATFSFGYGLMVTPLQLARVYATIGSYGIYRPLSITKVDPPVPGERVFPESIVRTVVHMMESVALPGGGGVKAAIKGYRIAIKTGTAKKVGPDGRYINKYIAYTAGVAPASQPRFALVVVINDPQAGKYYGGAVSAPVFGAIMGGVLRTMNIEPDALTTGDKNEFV

Structure (SMILES)	pEC50 [1]	MIC (P. aeruginosa CDC-0110) [µg/mL]	MIC [2] [µg/mL]	MIC (A. baumannii 1258916) [µg/mL]	MIC (A. baumannii CDC-0036) [µg/mL]	MIC [3] [µg/mL]	MIC (P. aeruginosa CDC-0090) [µg/mL]	MIC (P. aeruginosa CDC-0054) [µg/mL]	MIC (P. aeruginosa ATCC 27853) [µg/mL]
CS(=O)(=O)N1CCN(C(=O)N[C@H](C(=O)N[C@H]2Cc3cccc(C(=O)O)c3OB2O)c2ccc(P(=O)(O)O)cc2)C1=O (single isomer, unassigned) [Example 5]	3.60 to 4.30	–	–	–	–	–	–	–	–
O=C(O)c1c(F)ccc2c1OB(O)[C@@H](NC(=O)[C@@H](NC(=O)N1CCN(C3CCN(C(=O)Nc4ccc(O)cc4)CC3)C1=O)c1cc(F)c(O)c(O)c1Cl)C2 (single isomer, unassigned) [Example 467]	–	< 1	< 1	< 1	< 1	< 1	< 1	2 to 4 (≈ 2.59 to 5.18 µM)	< 1
O=C(O)c1c(F)ccc2c1OB(O)[C@@H](NC(=O)[C@H](NC(=O)N1CCN(C3CCN(C(=O)Nc4ccc(O)cc4)CC3)C1=O)c1cc(F)c(O)c(O)c1Cl)C2 (single isomer, unassigned) [Example 468]	–	< 1	< 1	< 1	< 1	< 1	< 1	< 1	< 1
CCN1CCN(C(=O)NC(C(=O)N[C@H]2Cc3cccc(C(=O)O)c3OB2O)c2ccc(P(=O)(O)O)cc2F)C(=O)C1=O (stereo partly drawn) [Example 1, (3R)-3-(2-(4-ethyl-2,3-dioxopiperazine-1-carboxamido)-2-(2-fluoro-4-phosphonophenyl)acetamido)-2-hydroxy-3,4-dihydro-2H-benzo[e][1,2]oxaborinine-8-carboxylic acid]	> 5.00	–	–	–	–	–	–	–	–
CCN1CCN(C(=O)NC(C(=O)N[C@H]2Cc3cccc(C(=O)O)c3OB2O)c2cc(P(=O)(O)O)ccc2F)C(=O)C1=O (stereo partly drawn) [Example 2, (3R)-3-(2-(4-ethyl-2,3-dioxopiperazine-1-carboxamido)-2-(2-fluoro-5-phosphonophenyl)acetamido)-2-hydroxy-3,4-dihydro-2H-benzo[e][1,2]oxaborinine-8-carboxylic acid]	> 5.00	–	–	–	–	–	–	–	–
NCCN1CCN(C(=O)NC(C(=O)N[C@H]2Cc3cccc(C(=O)O)c3OB2O)c2ccc(P(=O)(O)O)cc2)C(=O)C1=O (stereo partly drawn) [Example 3, (3R)-3-(2-(4-(2-aminoethyl)-2,3-dioxopiperazine-1-carboxamido)-2-(4-phosphonophenyl)acetamido)-2-hydroxy-3,4-dihydro-2H-benzo[e][1,2]oxaborinine-8-carboxylic acid]	4.30 to 5.00	–	–	–	–	–	–	–	–
O=C(O)c1cccc2c1OB(O)[C@@H](NC(=O)C(NC(=O)N1CCN(CC(F)(F)F)C(=O)C1=O)c1ccc(P(=O)(O)O)cc1)C2 (stereo partly drawn) [Example 4, (3R)-3-(2-(2,3-dioxo-4-(2,2,2-trifluoroethyl)piperazine-1-carboxamido)-2-(4-phosphonophenyl)acetamido)-2-hydroxy-3,4-dihydro-2H-benzo[e][1,2]oxaborinine-8-carboxylic acid]	> 5.00	–	–	–	–	–	–	–	–
O=C(O)c1c(F)ccc2c1OB(O)[C@@H](NC(=O)C(NC(=O)N1CCN(C3CCN(C(=O)c4ccc(O)cc4)CC3)C(=O)C1=O)c1cc(F)c(O)c(O)c1Cl)C2 (stereo partly drawn) [Example 427, (3R)-3-(2-(2-chloro-5-fluoro-3,4-dihydroxyphenyl)-2-(4-(1-(4-hydroxybenzoyl)piperidin-4-yl)-2,3-dioxopiperazine-1-carboxamido)acetamido)-7-fluoro-2-hydroxy-3,4-dihydro-2H-benzo[e][1,2]oxaborinine-8-carboxylic acid]	> 5.00	< 1	< 1	< 1	< 1	< 1	2 to 4 (≈ 2.54 to 5.09 µM)	2 to 4 (≈ 2.54 to 5.09 µM)	< 1
O=C(O)c1c(F)ccc2c1OB(O)[C@@H](NC(=O)C(NC(=O)N1CCN(C3CCN(C(=O)Cc4cccc(O)c4)CC3)C(=O)C1=O)c1cc(F)c(O)c(O)c1Cl)C2 (stereo partly drawn) [Example 474, (3R)-3-(2-(2-chloro-5-fluoro-3,4-dihydroxyphenyl)-2-(4-(1-(2-(3-hydroxyphenyl)acetyl)piperidin-4-yl)-2,3-dioxopiperazine-1-carboxamido)acetamido)-7-fluoro-2-hydroxy-3,4-dihydro-2H-benzo[e][1,2]oxaborinine-8-carboxylic acid]	–	< 1	< 1	< 1	< 1	2 to 4 (≈ 2.5 to 5 µM)	< 1	< 1	2 to 4 (≈ 2.5 to 5 µM)
O=C(O)c1c(F)ccc2c1OB(O)[C@@H](NC(=O)C(NC(=O)N1CCN(CC3CCN(C(=O)c4cccc(O)c4)CC3)C(=O)C1=O)c1cc(F)c(O)c(O)c1Cl)C2 (stereo partly drawn) [Example 475, (3R)-3-(2-(2-chloro-5-fluoro-3,4-dihydroxyphenyl)-2-(4-((1-(3-hydroxybenzoyl)piperidin-4-yl)methyl)-2,3-dioxopiperazine-1-carboxamido)acetamido)-7-fluoro-2-hydroxy-3,4-dihydro-2H-benzo[e][1,2]oxaborinine-8-carboxylic acid]	–	< 1	< 1	< 1	2 to 4 (≈ 2.5 to 5 µM)	< 1	< 1	< 1	2 to 4 (≈ 2.5 to 5 µM)
O=C(O)c1c(F)ccc2c1OB(O)[C@@H](NC(=O)C(NC(=O)N1CCN(C3CCN(C(=O)c4ccc(O)cc4O)CC3)C(=O)C1=O)c1cc(F)c(O)c(O)c1Cl)C2 (stereo partly drawn) [Example 476, (3R)-3-(2-(2-chloro-5-fluoro-3,4-dihydroxyphenyl)-2-(4-(1-(2,4-dihydroxybenzoyl)piperidin-4-yl)-2,3-dioxopiperazine-1-carboxamido)acetamido)-7-fluoro-2-hydroxy-3,4-dihydro-2H-benzo[e][1,2]oxaborinine-8-carboxylic acid]	–	< 1	< 1	< 1	< 1	< 1	< 1	< 1	< 1
O=C(O)c1c(F)ccc2c1OB(O)[C@@H](NC(=O)C(NC(=O)N1CCN(CC3CCN(C(=O)Nc4cccc(O)c4)CC3)C(=O)C1=O)c1cc(F)c(O)c(O)c1Cl)C2 (stereo partly drawn) [Example 477, (3R)-3-(2-(2-chloro-5-fluoro-3,4-dihydroxyphenyl)-2-(4-((1-((3-hydroxyphenyl)carbamoyl)piperidin-4-yl)methyl)-2,3-dioxopiperazine-1-carboxamido)acetamido)-7-fluoro-2-hydroxy-3,4-dihydro-2H-benzo[e][1,2]oxaborinine-8-carboxylic acid]	–	< 1	< 1	< 1	2 to 4 (≈ 2.45 to 4.91 µM)	< 1	< 1	< 1	< 1
O=C(O)c1c(F)ccc2c1OB(O)[C@@H](NC(=O)C(NC(=O)N1CCN(C3CCN(C(=O)Nc4cccc(O)c4F)CC3)C(=O)C1=O)c1cc(F)c(O)c(O)c1Cl)C2 (stereo partly drawn) [Example 478, (3R)-3-(2-(2-chloro-5-fluoro-3,4-dihydroxyphenyl)-2-(4-(1-((2-fluoro-3-hydroxyphenyl)carbamoyl)piperidin-4-yl)-2,3-dioxopiperazine-1-carboxamido)acetamido)-7-fluoro-2-hydroxy-3,4-dihydro-2H-benzo[e][1,2]oxaborinine-8-carboxylic acid]	–	2 to 4 (≈ 2.44 to 4.88 µM)	< 1	< 1	2 to 4 (≈ 2.44 to 4.88 µM)	2 to 4 (≈ 2.44 to 4.88 µM)	2 to 4 (≈ 2.44 to 4.88 µM)	2 to 4 (≈ 2.44 to 4.88 µM)	2 to 4 (≈ 2.44 to 4.88 µM)
